Results published in PMC11814485, “Screening of homing and tissue-penetrating peptides by microdialysis and in vivo phage display” (Life Science Alliance, 2025).

What was measured:
[1] = system: CHO-K cells; assay: Peptide internalization in vitro, confocal imaging, CHO-K cells; format: cell-based, Chinese hamster; settings: FAM-labeled peptide 20 μM, 3 h, 37°C, confocal fluorescence imaging, representative of three experiments
Description: Figure 1. Microdialysis-captured peptides penetrate the cell membrane. […] CHO-K cells were grown on chamber slides. […] The scale bar is 20 μm. Images are representative of three individual experiments.
Plain growth medium was used as a negative control.

[2] = system: skin wounds; assay: Homing of systemically administered FAM-peptides to mouse skin excision wounds and normal organs (anti-FAM staining, QuPath); format: in vivo, mouse (BALB/cJRj); settings: for localisation in skin wound / accumulation in normal organs: tail vein, 150 min; for localisation in skin wound: anti-FAM and anti-CD31 staining; for accumulation in normal organs: normal skin, heart, liver, lung, spleen, kidney, anti-FAM staining
Description: We next studied homing of systemically administered CDD, CPK, and CYH peptides in mouse skin excision wounds at the peak of neovascularization, 7 d after wounding. The peptides were injected into the tail vein and allowed to circulate for 2.5 h. The systemically administered peptides were detected in the granulation tissue of the wounds outside of the blood vessels (Figs 2 and S4). […] In contrast, the peptides were undetectable in normal skin (Fig S5A), heart, liver, lung, and spleen (Fig S5B), except for strong signal related to peptide secretion from the kidney glomeruli (Fig S5B).
Figure 2. Microdialysis-captured peptides home to skin wounds and localize in granulation tissue. […] Six-mm-diameter full-thickness wounds were cut in the back skin of 8-wk-old male mice. After 7 d, the peptides or PBS was injected systemically (tail vein). The peptides were allowed to circulate for 150 min before the vasculature was thoroughly perfused. The wound tissue was fixed, and microscopic sections were stained with anti-FAM and hematoxylin. (A, B) Magnifications of areas marked in panel (A) are represented in panel (B) with adjacent sections stained with anti-CD31 to visualize the blood vessels. The scale bar is 500 μm for panel (A) and 125 μm for panel (B). Images are representative of two separate experiments, four mice in each peptide group.
(§1) Figure 3. Microdialysis-captured peptides home to skin wounds and penetrate blood–retina barrier in retinopathy. Systemically administered homing peptides CDD, CPK, and CYH accumulate in skin wounds and penetrate blood–retina barrier in retinopathy. Full-thickness wounds, 6 mm in diameter, in the back skin of 8-wk-old male mice were used. After 7 d, each peptide or PBS was injected into the tail vein. For retinopathy experiments, oxygen-induced retinopathy (OIR) was induced by placing mouse pups at day P7 in a hyperoxia chamber for 5 d. On P17, when the angiogenesis peaks in this OIR model, the peptides were injected into the tail vein. The peptides circulated for 150 min (wounds) and 120 min (OIR) before the vasculature was thoroughly perfused. The skin wounds and eyeballs were fixed, and histological samples stained with anti-FAM and hematoxylin. Peptide homing was quantified with the automated image analysis system. (A) Microdialysis-identified peptides home to skin wounds. […] (D) All three microdialysis-identified peptides also accumulate substantially in the vitreous in the OIR model. *P < 0.05, **P < 0.01, ***< 0.001. Each datapoint represents an individual wound, retina, or vitreous. N = 3 for skin wound, and N = 6 and N = 8 for normal and OIR retinas.
Male BALB/cJRj and diabetic male BKS(D)-Lepr^db/JOrlRj mice were used for the peptide homing experiment. The BALB/cJRj mice were 8 wk old and weighed 24–28 g. The BKS(D)-Lepr^db/JOrlRj mice were 14 wk old and weighed 45–58 g, and their blood sugar levels were over 33 mmol/liter. Four full-thickness circular wounds were created on a shaved and disinfected skin with a 6-mm-diameter biopsy punch and scissors under isoflurane anesthesia (Attane vet 1,000 mg/g; Piramal Critical Care B.V.) and buprenorphine analgesia (0.15 mg/kg; Vetergesic vet 0.3 mg/ml; Ceva Santé Animal). Seven days after the wounding, the homing experiment was performed. The animal use was accepted by the National Animal Ethics Committee of Finland on 12 September 2017 (ESAVI/6422/04.10.07/2017) and on 4 January 2022 (ESAVI/39175/2021).
BALB/cJRj and diabetic male BKS(D)-Lepr^db/JOrlRj mice with 7-d-old skin wounds were used for the peptide homing experiment. FAM-labeled peptides were dissolved in the PBS just before the experiment. 5 mg/kg (BALB/cJRj) or 1,5 mg/kg (BKS(D)-Lepr^db/JOrlRj) of each peptide (CAR, CDD, CPK, CYH, and a control peptide) in PBS or plain PBS (control) was injected on the tail vein under sevoflurane anesthesia. […]

[3] = system: retina (OIR model); assay: Homing of FAM-peptides to retina and vitreous in oxygen-induced retinopathy (OIR) and to normal retina; format: in vivo, mouse (C57BL/6Rj); settings: for peptide accumulation in the vitreous of the OIR retina relative to the control peptide / area of positive staining in OIR retina relative to a control peptide: OIR mice P17, 5 mg/kg, 120 min circulation, anti-FAM; for area of positive staining in OIR retina relative to a control peptide: N = 8; for homing signal in OIR retinas around retinal and preretinal blood vessels: OIR mice P17, 120 min, anti-FAM staining
Description: as §1
We wanted to explore whether the new wound-penetrating peptides externalize and penetrate tissues that have an additional barrier around the blood vessels. The retinal blood vessels have an additional element, blood–retina barrier (BRB) that hinders the access of systemically administered drugs to retina ([Lahdenranta et al, 2007]; [Sweeney et al, 2019]; [Vähätupa, et al, 2020b]). Thus, we explored the homing of the new peptides to the normal retina and to the retinal angiogenesis in the oxygen-induced retinopathy (OIR) model ([Vähätupa, et al, 2020b]). […] Next, we quantified the area of positive staining in the retina. There was ninefold more of CYH (P < 0.01) and 120-fold and 88-fold more of CDD and CPK than of a control peptide in OIR retinas (P < 0.0001 for the CDD and CPK peptides) (Fig 3C).
Figure 4. Microdialysis-captured peptides home and penetrate to retina in retinopathy. The CDD, CPK, and CYH peptides accumulate in the retina and vitreous in oxygen-induced retinopathy (OIR). The OIR model was carried out as described previously ([Vähätupa et al, 2020b]). At P17, the peptides were injected into the tail vein and circulated for 120 min before the vasculature was thoroughly perfused. The eyeballs were fixed and histological sections stained with anti-FAM antibody and hematoxylin. (A) None of the tested peptides homed to the normal retina after the systemic administration at P17. (B) Three microdialysis-identified homing peptides homed and penetrated into the retina in OIR at the peak of angiogenesis at P17. The peptides also accumulate in the vitreous in the OIR model. (A, B, C) High-magnification images of peptide accumulation in OIR retina. The scale bar is 100 μm for (A, B) and 20 μm for (C). Images are representative of N = 6 and N = 8 for normal and OIR retinas.
WT C57BL/6Rj mice were used for the OIR experiments ([Vähätupa, et al, 2020a]). The OIR model was performed as described in detail previously ([Vähätupa, et al, 2020a]; [De Rossi et al, 2021]). Briefly, to induce retinopathy in the retina, the pups and their nursing mothers were exposed to 75% oxygen in a custom-made chamber (ProOx P110 oxygen controller; BioSpherix Ltd.) at postnatal day 7 (P7) for 5 d until P12 when they were returned to normal room air. The homing experiments were performed at P17 (late hypoxic phase and the peak of neovascularization) ([Vähätupa et al, 2021]). Control animals were housed under normal room air conditions, and retinas were harvested on the corresponding day (P17). All retina experiments were conducted under the ARVO Statement for the Use of Animals in Ophthalmic and Vision Research guidelines. […]

Question: Which results are given for “CDDYQQISC [FAM-labeled synthetic peptide …]”?
Answer: cellular uptake in CHO-K cells [1]: accumulate in the CHO-K cells; accumulation in skin wounds relative to a control ([2]; mouse day 7 wound, 5 mg/kg tail vein, 150 min circulation, anti-FAM positive area, N = 3): 12 fold; localisation in skin wound ([2]; mouse day 7 wound): accumulated in wound regions containing blood vessels and in surrounding extravascular granulation tissue; accumulation in normal organs [2]: do not accumulate in normal, healthy organs except in the kidneys; peptide accumulation in the vitreous of the OIR retina relative to the control peptide [3]: 67.2 ×; area of positive staining in OIR retina relative to a control peptide [3]: 120 fold; homing signal in OIR retinas around retinal and preretinal blood vessels [3]: strong homing signal

Question: “CPKKHHLDC [FAM-labeled synthetic peptide …]” was tested. Which “cellular uptake in CHO-K cells” value [1] did it give?
Answer: Its value is “accumulate in the CHO-K cells”.

Question: And the “localisation in skin wound” value ([2]; mouse day 7 wound)?
Answer: Its value is “accumulated in wound regions containing blood vessels and in surrounding extravascular granulation tissue”.

Question: And the “accumulation in normal organs” value [2]?
Answer: The value was “do not accumulate in normal, healthy organs except in the kidneys”.

Question: And the “peptide accumulation in the vitreous of the OIR retina relative to the control peptide” value [3]?
Answer: Its value is 80.3 ×.

Question: And the “area of positive staining in OIR retina relative to a control peptide” value [3]?
Answer: The value was 88 fold.

Question: What about the “homing signal in OIR retinas around retinal and preretinal blood vessels” value [3] of the same sequence?
Answer: Its value is “strong homing signal”.

Question: Which results are given for “CYHDTYPNC [FAM-labeled synthetic peptide …]”?
Answer: cellular uptake in CHO-K cells [1]: accumulate in the CHO-K cells; localisation in skin wound ([2]; mouse day 7 wound): accumulated in wound regions containing blood vessels and in surrounding extravascular granulation tissue; accumulation in normal organs [2]: do not accumulate in normal, healthy organs except in the kidneys; peptide accumulation in the vitreous of the OIR retina relative to the control peptide [3]: 16.9 ×; area of positive staining in OIR retina relative to a control peptide [3]: ninefold; homing signal in OIR retinas around retinal and preretinal blood vessels [3]: strong homing signal
